According to patent US6280760A, “Peptide-coated implants and methods for producing same” (Merck Patent Gesellschaft mit beschraenkter Haftung, priority 1997, dated 2001):
Each block holds one compound with its values, some of them ahead of it.

Columns and labels:
[1] = system: osteoblast cell cultures; test: Inhibition of osteoblast binding to thiolpeptide 1-coated surfaces by dissolved cyclic RGDfK in the adhesion medium; type: cell-based, mouse, human, rat; details: dissolved peptide in the adhesion medium; coating 10 μM; FIG. 4
Method: FIG. 4: Adhesion of osteoblasts to test surfaces coated with thiolpeptide 1-SMPP derivative (10 μM in the coating solution) (see FIG. 2)
x axis: Concentration of dissolved cyclo-RGDfK (without molecular anchor) in the adhesion medium (μM),
To do this, 48-well plates (Costar, "non-tissue culture treated", Art. No. 3547) were each coated with 250 μl of PBS (phosphate-buffered saline), pH=8.3, 2% BSA, per well and incubated overnight at room temperature in order to generate a BSA layer on the polystyrene. The plates were then washed with 250 μl of PBS, pH=8.3, per well and incubated at room temperature for 1 hour with 250 μl each of a solution containing 100 μg/ml of SMPB in PBS, pH 8.3. Washing of the wells was then carried out three times using 250 μl of PBS, pH 8.3, each time. For the preparation of the coating solutions, the appropriate thiol-RGD peptide was prepared in the following final concentrations in PBS, pH 8.3: 1 nM, 10 nM, 100 nM, 1 μM, 10 μM, 100 μM and 1 mM. After addition of 250 μl each of coating solution/well, the plates were incubated at room temperature overnight and then washed three times with PBS, pH 8.3. […]
(§1) The quantification of the adhered cells was carried out indirectly via the activity determination of the cellular enzyme N-acetylhexosaminidase using an appropriate standard curve according to the method of Landegren (1984, J. Immunol. Methods, 67: 379-388).

[2] = system: MC3T3 H1 osteoblasts; test: Adhesion of MC3T3 H1 osteoblasts to PMMA bone cement shaped articles coated with cell-selective acrylate peptides; type: cell-based, mouse; details: for cell adhesion, calculated Abs (405 nm), osteoblasts: first part experiment
Excerpt: (§2) The model used for material coating with RGD peptides of different cell selectivity to obtain implants having locally differentiated bioactive coating patterns which should stimulate the adhesion of different cell species was polymerized PMMA bone cement shaped articles. To these were covalently coupled two RGD peptides of different cell selectivity. In this case acrylate peptide 3, type iiia, having a selectivity for alphav beta3 -/alphav beta5 -integrin-bearing osteoblasts, and acrylate peptide 5, type iiia, having a selectivity for […] -positive platelets were bonded to the PMMA shaped articles as described for Example 3.
(§3) a. In the first part experiment, PMMA shaped articles were coated with the acrylate peptides 3 and 5 in concentrations in the coating solution of 100 μM, 10 μM and 1 μM in each case. These RGD peptide-coated materials were then inoculated in parallel with osteoblasts and platelets and their cell adhesion was determined.
(§4) MC3T3 H1 osteoblasts (350,000 cells/cm^2) and human platelets (50 million cells/cm^2) were in each case inoculated in parallel both onto acrylate peptide 3- and acrylate peptide 5-coated PMMA shaped articles and their cell adhesion was determined as described in Example 3.
(§5) b. In the second part experiment, PMMA shaped articles were likewise coated with the acrylate peptides 3 and 5, but only in a concentration in the coating solution of 100 μM in each case. These RGD peptide-coated materials were then inoculated in parallel with osteoblasts, platelets or an osteoblast/platelet mixture and their cell adhesion was determined. MC3T3 H1 osteoblasts (350,000 cells/cm^2), human platelets (50 million cell/cm^2) and a cell mixture (350,000 osteoblasts/cm^2 […] 50 million platelets/cm^2) were in each case inoculated in parallel both onto acrylate peptide 3- and acrylate peptide 5-coated PMMA shaped articles and their cell adhesion was determined as described in Example 3.

[3] = system: osteoblasts/platelets mixture; test: Adhesion of an osteoblast/platelet mixture to PMMA bone cement shaped articles coated with cell-selective acrylate peptides; type: cell-based, mouse, human; details: second part experiment; 100 μM peptide in the coating solution
Method: as §5

[4] = system: human platelets; test: Adhesion of human platelets to PMMA bone cement shaped articles coated with cell-selective acrylate peptides; type: cell-based; details: for cell adhesion, calculated Abs (405 nm), platelets: first part experiment
Excerpt: as §2, §3, §4
Human platelets were prepared following the process of Shattil and Brass (J. Biol. Chem. 262:992-1000, 1987).
as §5

[5] = system: MC3T3 H1 osteoblasts; test: Adhesion of MC3T3 H1 osteoblasts to PMMA moulded articles coated with acrylate RGD peptides; type: cell-based, mouse; details: for maximal adsorption rates: 48,000 cells/cm^2, 1 hour
Method: For the covalent coupling of these peptides to polymerized PMMA (polymethyl methacrylate) surfaces, appropriate shaped articles of differing porosity (diameter: 10 mm; height: 2 mm) were prepared from three different PMMA components.
Bone cement based on PMMA (Merck KGaA, Germany, Licence No. 5181.00.00) corresponding to the product description (40 g of powder+20 ml of liquid).
10 g of PMMA/PHEMA (polyhydroxyethyl methacrylate) granules, particle size 0.5-0.6 mm (Biomet) were mixed with 1.3 ml of an HEMA solution (68.6% HEMA, 29.4% TEGMA [triethylene glycol dimethacrylate], 2% tBPB, [tert-butyl peroxybenzoate]) and adhered by means of this to a porous support material.
10 g of PMMA granules (Plex Y7H, Rohm, Germany), particle fraction 0.7-2 mm were mixed with 1.5 ml of a methyl methacrylate (MMA) solution (68.6% MMA, 29.4% TEGMA, 2% tBPB) and adhered by this means to a porous support material.
For the covalent coupling of the acrylate peptides to the prepolymerized PMMA moulded articles, stock solutions of the acrylate peptides 1, 2, 3 and 4 were prepared in a final concentration of 100 μM in each case in DMSO/0.2% camphorquinone (w/v). Then, by dilution with isopropanol/0.2% camphorquinone (w/v), concentration series having final peptide concentrations of 0.1 nM, 1 nM, 10 nM, 100 nM, 1 μM and 10 μM in each case were prepared. The moulded articles were incubated in daylight and at room temperature for 2 hours and then stored at 4° C. in the dry state. Before use, the samples were washed with PBS, pH 7.4, to remove unbound peptides and stored at 4° C. in PBS, pH 7.4, overnight.
By addition of 250 μl/moulded article each of a 5% strength BSA solution in PBS, pH 7.4, and subsequent incubation for 2 hours at room temperature and washing once with PBS, pH 7.4, non-specific cell-binding sites were blocked.
Subsequently, the adhesion of osteoblasts of the MC3T3 H1 line, obtained from the calvaria of neonatal mice (Heermeier et al., 1995, Cells and Materials 5: 309-321) to the above-described peptide-coated surfaces was investigated.
The MC3T3 H1 osteoblasts were inoculated at an inoculation density of 48,000 cells/cm^2, as described above, in Costar 48-well plates, with PMMA moulded articles coated with RGD peptide and then incubated for 1 hour at 37° C., 95% atmospheric humidity and 5% CO2. Cells non-adhered during the experiment were then washed off twice with PBS, pH 7.4.
as §1

[6] = 1 μM peptide in the coating solution
[7] = 10 μM peptide in the coating solution
[8] = 100 μM peptide in the coating solution
[9] = second part experiment, 100 μM peptide in the coating solution
[10] = bone cement shaped articles, FIG. 8
[11] = different PMMA moulded articles

Compound: N=C(N)NCCC[C@@H]1NC(=O)[C@H](CCCCN)NC(=O)[C@@H](Cc2ccccc2)NC(=O)[C@H](CC(=O)O)NC(=O)CNC1=O [cyclic RGDfK, cyclo-RGDfK (Arg-Gly-Asp-DPhe-Lysine)]
inhibition of osteoblast binding to thiolpeptide 1-sulpho-SMPB derivative-coated surfaces [1]: completely inhibited

Compound: cyclo (RGDf[acrylic-ahx-tEG-KG]) [acrylate peptide 5]
cell adhesion, calculated Abs (405 nm), osteoblasts [2, 6]: about 0.2 Abs
cell adhesion, calculated Abs (405 nm), osteoblasts [2, 7]: about 1.0 Abs
cell adhesion, calculated Abs (405 nm), osteoblasts [2, 8]: about 1.5 Abs
cell adhesion, Abs, osteoblasts alone [2, 9]: about 1.5 Abs
cell adhesion, Abs, osteoblasts/platelets inoculated as a mixture [3]: about 6.5 Abs
cell adhesion, calculated Abs (405 nm), platelets [4, 6]: about 0.2 Abs
cell adhesion, calculated Abs (405 nm), platelets [4, 7]: about 0.5 Abs
cell adhesion, calculated Abs (405 nm), platelets [4, 8]: about 4.0 Abs
cell adhesion, Abs, platelets alone [4, 9]: about 4.0 Abs

Compound: cyclo(RGDf[acrylic-ahx-K]) [acrylate peptide 1]
stimulation of cell adhesion (in words) ([5]; PMMA carriers, comparison of anchor lengths): almost inactive
cell adsorption rates increased in comparison with uncoated surfaces [5, 10]: about 1.5 fold
maximal adsorption rates [5, 11]: about 20%

EC50 ([5]; different PMMA moulded articles, read-out: half-maximal cell bindings, RGD peptide concentration in the coating solution): 0.001 to 10 µM
Compound: cyclo(RGDf[acrylic-ahx-ahx-K]) [acrylate peptide 2]
cell adsorption rates increased in comparison with uncoated surfaces [5, 10]: 5-15 fold
maximal adsorption rates [5, 11]: 80-100%
cell adsorption rates increased in comparison with uncoated surfaces ([5]; porous PMMA/PHEMA granule shaped articles, FIG. 9): 2-5 fold
cell adsorption rates increased in comparison with uncoated surfaces ([5]; porous Plex Y7H granule shaped articles, FIG. 10): 2-3 fold
